Tests used:
[1] = target: T1, Bifunctional 3'-5' exonuclease/ATP-dependent helicase WRN [480-1251] (UniProt Q14191); test: Biochemical Activity Assays
T1 construct: 480-1251
Method: The pure fractions were pooled and desalted/buffer exchanged into storage buffer using a HiTrap desalting column. […] First, WRN alone was pre-incubated with DMSO or compound of interest for 15 minutes. To initiate the reaction, ATP, dsDNA substrate, and ssDNA competitor (ssDNA_comp: […]) were added and incubated at room temperature for 20 minutes at which point DNA unwinding activity was monitored by measuring Cy3 fluorescence. After obtaining the reading, the ATPase activity was measured using the ADP-Glo Kinase Assay following the manufacturers recommended protocol. […] Compounds were assayed in a 10-point dose response in duplicate at a 1% DMSO final assay concentration.

[2] = target: Bifunctional 3'-5' exonuclease/ATP-dependent helicase WRN (Homo sapiens, UniProt Q14191); test: ADP-Glo Kinase Assay
Chain of Bifunctional 3'-5' exonuclease/ATP-dependent helicase WRN (Q14191 whole entry): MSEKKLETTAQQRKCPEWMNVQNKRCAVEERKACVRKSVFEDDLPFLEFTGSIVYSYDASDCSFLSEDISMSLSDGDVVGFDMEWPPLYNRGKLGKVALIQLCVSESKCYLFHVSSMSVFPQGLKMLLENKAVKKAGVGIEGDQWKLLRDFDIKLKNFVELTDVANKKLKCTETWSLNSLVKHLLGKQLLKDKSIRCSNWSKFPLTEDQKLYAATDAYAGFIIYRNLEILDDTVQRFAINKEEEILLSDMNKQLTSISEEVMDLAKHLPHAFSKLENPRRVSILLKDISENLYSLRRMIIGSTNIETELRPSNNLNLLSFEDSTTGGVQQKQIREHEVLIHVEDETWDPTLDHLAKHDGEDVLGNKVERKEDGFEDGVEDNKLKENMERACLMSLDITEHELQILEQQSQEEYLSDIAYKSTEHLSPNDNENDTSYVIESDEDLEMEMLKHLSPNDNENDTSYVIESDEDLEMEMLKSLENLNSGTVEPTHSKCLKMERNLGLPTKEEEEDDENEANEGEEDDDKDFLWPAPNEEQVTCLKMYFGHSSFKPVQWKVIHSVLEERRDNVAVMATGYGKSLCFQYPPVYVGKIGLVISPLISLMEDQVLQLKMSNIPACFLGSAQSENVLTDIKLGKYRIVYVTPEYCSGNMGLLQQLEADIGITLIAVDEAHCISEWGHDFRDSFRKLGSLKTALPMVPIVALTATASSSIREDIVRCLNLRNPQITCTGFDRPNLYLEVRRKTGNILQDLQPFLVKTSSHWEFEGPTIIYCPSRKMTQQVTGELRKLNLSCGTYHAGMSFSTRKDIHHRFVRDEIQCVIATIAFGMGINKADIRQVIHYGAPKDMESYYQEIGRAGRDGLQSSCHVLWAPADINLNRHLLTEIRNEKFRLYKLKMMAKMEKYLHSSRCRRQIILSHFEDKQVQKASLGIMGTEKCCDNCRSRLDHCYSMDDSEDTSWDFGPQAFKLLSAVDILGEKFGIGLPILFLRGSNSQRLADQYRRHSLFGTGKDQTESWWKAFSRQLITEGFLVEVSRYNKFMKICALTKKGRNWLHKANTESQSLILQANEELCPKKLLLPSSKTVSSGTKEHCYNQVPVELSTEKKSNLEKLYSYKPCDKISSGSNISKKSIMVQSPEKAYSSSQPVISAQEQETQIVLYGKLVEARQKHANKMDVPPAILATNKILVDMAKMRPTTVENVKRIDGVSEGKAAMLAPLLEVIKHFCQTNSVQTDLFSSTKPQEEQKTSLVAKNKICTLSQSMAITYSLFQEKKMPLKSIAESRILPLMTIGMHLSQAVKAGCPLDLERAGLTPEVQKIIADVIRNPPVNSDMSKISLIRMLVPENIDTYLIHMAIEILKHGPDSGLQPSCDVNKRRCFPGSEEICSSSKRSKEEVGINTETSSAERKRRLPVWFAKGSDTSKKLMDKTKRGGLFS
Method: ATPase activity was measured using the ADP-Glo Kinase Assay following the manufacturers recommended protocol.

T1 sequence (Q14191 480-1251): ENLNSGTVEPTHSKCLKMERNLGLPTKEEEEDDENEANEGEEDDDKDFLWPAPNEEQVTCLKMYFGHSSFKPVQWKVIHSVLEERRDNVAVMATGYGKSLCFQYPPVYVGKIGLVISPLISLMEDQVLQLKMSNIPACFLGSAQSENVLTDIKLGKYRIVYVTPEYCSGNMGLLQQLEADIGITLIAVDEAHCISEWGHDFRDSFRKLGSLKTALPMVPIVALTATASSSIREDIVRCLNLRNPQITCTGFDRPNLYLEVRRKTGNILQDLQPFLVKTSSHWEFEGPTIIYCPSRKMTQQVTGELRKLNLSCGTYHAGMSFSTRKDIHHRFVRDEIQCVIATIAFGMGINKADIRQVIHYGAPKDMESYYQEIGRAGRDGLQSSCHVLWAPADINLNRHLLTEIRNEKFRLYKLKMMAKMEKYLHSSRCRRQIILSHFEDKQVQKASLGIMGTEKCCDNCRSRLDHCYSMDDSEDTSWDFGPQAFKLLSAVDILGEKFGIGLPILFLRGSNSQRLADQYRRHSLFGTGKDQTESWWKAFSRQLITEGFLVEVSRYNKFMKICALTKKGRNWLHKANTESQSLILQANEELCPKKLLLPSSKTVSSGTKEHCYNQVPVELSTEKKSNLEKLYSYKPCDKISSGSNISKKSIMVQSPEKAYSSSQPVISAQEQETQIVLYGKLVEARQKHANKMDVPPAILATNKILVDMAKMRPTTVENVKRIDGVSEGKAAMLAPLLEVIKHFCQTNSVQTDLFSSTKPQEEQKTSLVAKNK

| Compound | IC50 [1] [nM] | IC50 [2] [nM] |
| --- | --- | --- |
| CCc1c(N2CCN(C(=O)c3nccc4nc[nH]c34)CC2)c(=O)n2nc(-c3ccc4c(c3)OCO4)nc2n1CC(=O)Nc1ccc(C(F)(F)F)cc1Cl [WO2025049746, Example 88] | 28.9 | 48.8 |
| CCc1c(N2CCN(C(C)=O)CC2)c(=O)n2nc(-c3ccc4c(c3)OCO4)nc2n1CC(=O)Nc1ccc(C(F)(F)F)cc1Cl [WO2025049746, Example 89] | 240 | 250 |
| CCc1c(N2CCN(C(=O)c3nc4n(c(=O)c3O)CCOC4)CC2)c(=O)n2nc(-c3ccc4c(c3)CCOC4)nc2n1CC(=O)Nc1ccc(C(F)(F)F)cc1Cl [WO2025049746, Example 90] | 29.2 | 34.6 |
| CCc1c(N2CCN(C(=O)c3ccccc3NS(=O)(=O)C3CC3)CC2)c(=O)n2nc(-c3ccc4c(c3)CCOC4)nc2n1CC(=O)Nc1ccc(C(F)(F)F)cc1Cl [WO2025049746, Example 91] | 84.6 | 106 |
| CCc1c(N2CCN(C(=O)c3nccc4nc[nH]c34)CC2)c(=O)n2nc(-c3ccc4c(c3)CCOC4)nc2n1CC(=O)Nc1ccc(C(F)(F)F)cc1Cl [WO2025049746, Example 92] | 23 | 27.9 |
| CCc1c(N2CCN(C(=O)c3nc4n(c(=O)c3O)CCOC4)CC2)c(=O)n2nc(N3C[C@H]4COC[C@H]4C3)nc2n1CC(=O)Nc1ccc(C(F)(F)F)cc1Cl [WO2025049746, Example 93] | 320 | 381 |
| CCc1c(N2CCN(C(=O)c3ccccc3NS(=O)(=O)C3CC3)CC2)c(=O)n2nc(N3C[C@H]4COC[C@H]4C3)nc2n1CC(=O)Nc1ccc(C(F)(F)F)cc1Cl [WO2025049746, Example 94] | 23.4 | 26.6 |
| CCc1c(N2CCN(C(=O)c3nccc4nc[nH]c34)CC2)c(=O)n2nc(N3C[C@H]4COC[C@H]4C3)nc2n1CC(=O)Nc1ccc(C(F)(F)F)cc1Cl [WO2025049746, Example 95] | 16.3 | 20.1 |
| CCc1c(N2CCN(C(=O)c3ncnc(C)c3O)CC2)c(=O)n2nc(-c3ccc4c(c3)OCO4)nc2n1CC(=O)Nc1ccc(C(F)(F)F)c2c1CC2 [WO2025049746, Example 96] | 25.9 | 28.3 |
| CCc1c(N2CCN(C(=O)c3ncnc(C)c3O)CC2)c(=O)n2nc(-c3cccc4c3OCCO4)nc2n1CC(=O)Nc1ccc(C(F)(F)F)c2c1CC2 [WO2025049746, Example 97] | 15.9 | 19.3 |
| CCc1c(N2CCN(C(=O)c3ncnc(C)c3O)CC2)c(=O)n2nc(-c3ccc4c(c3)CCOC4)nc2n1CC(=O)Nc1ccc(C(F)(F)F)c2c1CC2 [WO2025049746, Example 98] | 23.9 | 30.8 |
| CCc1c(N2CCN(C(=O)c3ncnc(C)c3O)CC2)c(=O)n2nc(N(C)C)nc2n1CC(=O)Nc1ccc(C(F)(F)F)c2c1CC2 [WO2025049746, Example 104] | 22.8 | 26.9 |
| CCc1c(N2CCN(C(=O)c3ccccc3NS(=O)(=O)C3CC3)CC2)c(=O)n2nc(N(C)C)nc2n1CC(=O)Nc1ccc(C(F)(F)F)c2c1CC2 [WO2025049746, Example 105] | 264 | 281 |
| CCc1c(N2CCN(C(=O)c3ccccc3NS(C)(=O)=O)CC2)c(=O)n2nc(N(C)C)nc2n1CC(=O)Nc1ccc(C(F)(F)F)c2c1CC2 [WO2025049746, Example 106] | 276 | 414 |
| CCc1c(N2CCN(C(=O)c3cn(C)nc3O)CC2)c(=O)n2nc(N(C)C)nc2n1CC(=O)Nc1ccc(C(F)(F)F)c2c1CC2 [WO2025049746, Example 107] | 129 | 160 |
| CCc1c(N2CCN(C(=O)c3nccc4nc[nH]c34)CC2)c(=O)n2nc(N(C)C)nc2n1CC(=O)Nc1ccc(C(F)(F)F)c2c1CC2 [WO2025049746, Example 108] | 15.5 | 21.8 |
| CCc1c(N2CCN(C(=O)c3nc4n(c(=O)c3O)CCOC4)CC2)c(=O)n2nc(N(C)C)nc2n1CC(=O)Nc1ccc(C(F)(F)F)c2c1CC2 [WO2025049746, Example 109] | 14.7 | 13.4 |
| CCc1c(N2CCN(C(=O)c3ccccc3NS(=O)(=O)C3CC3)CC2)c(=O)n2nc(-c3ccc4c(c3)CCOC4)nc2n1CC(=O)Nc1ccc(C(F)(F)F)c2c1CC2 [WO2025049746, Example 110] | 372 | 467 |
| CCc1c(N2CCN(C(=O)c3ccccc3NS(=O)(=O)C3CC3)CC2)c(=O)n2nc(-c3ccc4c(c3)OCO4)nc2n1CC(=O)Nc1ccc(C(F)(F)F)c2c1CC2 [WO2025049746, Example 111] | 251 | 308 |
| CCc1c(N2CCN(C(=O)c3ccccc3NS(=O)(=O)C3CC3)CC2)c(=O)n2nc(N3C[C@H]4COC[C@H]4C3)nc2n1CC(=O)Nc1ccc(C(F)(F)F)c2c1CC2 [WO2025049746, Example 112] | 45.7 | 58.3 |
| CCc1c(N2CCN(C(=O)c3ncnc(C)c3O)CC2)c(=O)n2nc(-c3cn4c(n3)COCC4)nc2n1CC(=O)Nc1ccc(C(F)(F)F)cc1Cl [WO2025049746, Example 153] | 165 | 168 |

| Compound | IC50 [1] [nM] | IC50 [2] [nM] |
| --- | --- | --- |
| CCc1c(N2CCN(C(=O)c3ncnc(C)c3O)CC2)c(=O)n2nc(-c3cc4n(n3)CCOC4)nc2n1CC(=O)Nc1ccc(C(F)(F)F)cc1Cl [WO2025049746, Example 154] | 50 | 69 |
| CCc1c(N2CCN(C(=O)c3ncnc(C)c3O)CC2)c(=O)n2nc(-c3cccc4oc(C)nc34)nc2n1CC(=O)Nc1ccc(C(F)(F)F)cc1Cl [WO2025049746, Example 155] | 35 | 89 |
| CCc1c(N2CCN(C(=O)c3ncnc(C)c3O)CC2)c(=O)n2nc(-c3cccc4sc(C)nc34)nc2n1CC(=O)Nc1ccc(C(F)(F)F)cc1Cl [WO2025049746, Example 156] | 37 | 52 |
| CCc1c(N2CCN(C(=O)c3ncnc(C)c3O)CC2)c(=O)n2nc(-c3cnc4c(c3)CCO4)nc2n1CC(=O)Nc1ccc(C(F)(F)F)cc1Cl [WO2025049746, Example 157] | 37 | 51 |
| CCc1c(N2CCN(C(=O)c3ncnc(C)c3O)CC2)c(=O)n2nc(-c3cccc4c3OCC4)nc2n1CC(=O)Nc1ccc(C(F)(F)F)cc1Cl [WO2025049746, Example 158] | 49 | 71 |
| CCc1c(N2CCN(C(=O)c3ncnc(C)c3O)CC2)c(=O)n2nc(-c3cccc4c3CCCO4)nc2n1CC(=O)Nc1ccc(C(F)(F)F)cc1Cl [WO2025049746, Example 159] | 82 | 231 |
| CCc1c(N2CCN(C(=O)c3ncnc(C)c3O)CC2)c(=O)n2nc(-c3cccc4c3OCCC4)nc2n1CC(=O)Nc1ccc(C(F)(F)F)cc1Cl [WO2025049746, Example 160] | 34 | 51 |
| CCc1c(N2CCN(C(=O)c3ncnc(C)c3O)CC2)c(=O)n2nc(-c3cncc4c3COCC4)nc2n1CC(=O)Nc1ccc(C(F)(F)F)cc1Cl [WO2025049746, Example 161] | 84 | 524 |
| CCc1c(N2CCN(C(=O)c3ncnc(C)c3O)CC2)c(=O)n2nc(-c3cnc4c(c3)CCOC4)nc2n1CC(=O)Nc1ccc(C(F)(F)F)cc1Cl [WO2025049746, Example 162] | 65 | 81 |
| CCc1c(N2CCN(C(=O)c3ncnc(C)c3O)CC2)c(=O)n2nc(-c3ccc4c(c3)COC4(C)C)nc2n1CC(=O)Nc1ccc(C(F)(F)F)cc1Cl [WO2025049746, Example 164] | 45 | 44 |
| CCc1c(N2CCN(C(=O)c3ncnc(C)c3O)CC2)c(=O)n2nc(-c3ccc4c(c3)C(C)(C)OC4)nc2n1CC(=O)Nc1ccc(C(F)(F)F)cc1Cl [WO2025049746, Example 165] | 42 | 53 |
| CCc1c(N2CCN(C(=O)c3ncnc(C)c3O)CC2)c(=O)n2nc(-c3cnn4c3CCC4)nc2n1CC(=O)Nc1ccc(C(F)(F)F)cc1Cl [WO2025049746, Example 166] | 14 | 16 |
| CCc1c(N2CCN(C(=O)c3ncnc(C)c3O)CC2)c(=O)n2nc(-c3cnn4c3CCCC4)nc2n1CC(=O)Nc1ccc(C(F)(F)F)cc1Cl [WO2025049746, Example 167] | 41 | 60 |
| CCc1c(N2CCN(C(=O)c3ncnc(C)c3O)CC2)c(=O)n2nc(-c3ccc4c(c3)CC(C)O4)nc2n1CC(=O)Nc1ccc(C(F)(F)F)cc1Cl (configuration not stated) [WO2025049746, Example 168] | 35 | 45 |
| CCc1c(N2CCN(C(=O)c3ncnc(C)c3O)CC2)c(=O)n2nc(-c3cc4c(cc3F)OCC4)nc2n1CC(=O)Nc1ccc(C(F)(F)F)cc1Cl [WO2025049746, Example 169] | 25 | 26 |
| CCc1c(N2CCN(C(=O)c3ncnc(C)c3O)CC2)c(=O)n2nc(-c3ccc4c(c3)C(C)CO4)nc2n1CC(=O)Nc1ccc(C(F)(F)F)cc1Cl (configuration not stated) [WO2025049746, Example 170] | 41 | 51 |
| CCc1c(N2CCN(C(=O)c3ncnc(C)c3O)CC2)c(=O)n2nc(-c3cc(C)c4c(c3)CCO4)nc2n1CC(=O)Nc1ccc(C(F)(F)F)cc1Cl [WO2025049746, Example 171] | 42 | 58 |
| CCc1c(N2CCN(C(=O)c3ncnc(C)c3O)CC2)c(=O)n2nc(-c3ccc4c(c3)C(C)(C)OC4(C)C)nc2n1CC(=O)Nc1ccc(C(F)(F)F)cc1Cl [WO2025049746, Example 172] | 87 | 124 |
| CCc1c(N2CCN(C(=O)c3ncnc(C)c3O)CC2)c(=O)n2nc(-c3cc(F)c4c(c3)CCO4)nc2n1CC(=O)Nc1ccc(C(F)(F)F)cc1Cl [WO2025049746, Example 173] | 28 | 36 |
| CCc1c(N2CCN(C(=O)c3ncnc(C)c3O)CC2)c(=O)n2nc(-c3cc4c(cc3C)OCC4)nc2n1CC(=O)Nc1ccc(C(F)(F)F)cc1Cl [WO2025049746, Example 174] | 31 | 59 |
